The values that follow come from US5750504A, “Antimicrobial proteins” (Zeneca Agrochemicals, priority 1996, dated 1998).

Assay type in all cases: cell-based
For one test, the system named is fungi. Briefly: Morphological effect on fungal hyphae (fungi in general).
Another test has as its system Alternaria brassicae. Description: Antifungal activity assay (microspectrophotometry). The note with it: for IC50: host Brassica, inoculum Sp, period of incubation in AFP-solution 66. On the procedure: (§1) Antifungal activity was measured by microspectrophotometry as previously described (Broekaert, 1990, FEMS Microbiol Lett, 69:55-60). Routinely, tests were performed with 20 μl of a (filter-sterilized) test solution and 80 μl of a suspension of fungal spores (2×10^4 spores/ml) in half strength potato dextrose broth (1/2 PDB). […] Control microcultures contained 20 μl of sterile distilled water and 80 μl of the fungal spore suspension.
(§2) Unless otherwise stated the test organism was Fusarium culmorum (strain IMI 180420) and incubation was done at 25° C. for 48 hours. Percent growth inhibition is defined as 100 times the ratio of the corrected absorbance of the control microculture minus the corrected absorbance of the test microculture over the corrected absorbance at 595 nm of the control microculture. The corrected absorbance values equal the absorbance at 595 nm of the culture measured after 48 hours minus the absorbance at 595 nm measured after 30 min.
The antifungal potency of the purified proteins was assessed on different plant pathogenic fungi, using the assay described in Example 1. Growth of fungi, collection and harvest of fungal spores and preparation of mycelial fragments were done as previously described (Broekaert et al, 1990, FEMS Microbiol Lett, 69:55-60). Serial dilutions of the antifungal proteins were applied to the fungi, either using growth medium SMF- (the synthetic growth medium of Example 1), medium SMF+ (medium SMF- supplemented with 1 mM CaCl2 and 50 mM KCl), growth medium 1/2 PDB- (half strength potato dextrose broth as in Example 1) or growth medium 1/2 PDB+ (medium 1/2 PDB- supplemented with 1 mM CaCl2 and 50 mM Kcl). The percent growth inhibition was measured by microspectrophotometry. […]
(§3) The abbreviations used are: IC50 =concentration required for 50% growth inhibition determined as described in Example 1; ND=not determined; Sp=spores; PrSp=spores pregerminated in the medium for 24 hours; MF=mycelial fragments preincubated for 48 hours in the medium prior to addition of the proteins; BHR=broad host range; SF=saprophytic fungus; SMF-=synthetic growth medium as described in Example 1; SMF+=SMF- supplemented with 1 mM CaCl2 and 50 mM KCl; 1/2PDB-=half strength potato dextrose broth as described in Example 1; 1/2PDB+=1/2PDB- supplemented with 1 mM CaCl2 and 50 mM KCl.

The subject of another test is Curvularia affinis. Description: Antifungal activity assay (microspectrophotometry). The following applies: strain FAJ97, host Musa, inoculum Sp, period of incubation in AFP-solution 40. How it is done:
as §1, §2
(§4) The antifungal potency of the purified proteins was assessed on different plant pathogenic fungi, using the assay described in Example 1. Growth of fungi, collection and harvest of fungal spores and preparation of mycelial fragments were done as previously described (Broekaert et al, 1990, FEMS Microbiol Lett, 69:55-60). Serial dilutions of the antifungal proteins were applied to the fungi, either using growth medium SMF- (the synthetic growth medium of Example 1), medium SMF+ (medium SMF- supplemented with 1 mM CaCl2 and 50 mM KCl), growth medium 1/2 PDB- (half strength potato dextrose broth as in Example 1) or growth medium 1/2 PDB+ (medium 1/2 PDB- supplemented with 1 mM CaCl2 and 50 mM Kcl). The percent growth inhibition was measured by microspectrophotometry. The concentration required for 50% growth inhibition after 48 h of incubation (IC50 value) was calculated from the dose-reponse curves.
as §3

A further test deals with Acremonium hyalinum. Briefly: Antifungal activity assay (microspectrophotometry). The note with it: strain FAJ98, host Musa, inoculum Sp, period of incubation in AFP-solution 64. On the procedure:
as §1, §2, §4, §3

The test system of another test is Alternaria brassicola. Description: Antifungal activity assay (microspectrophotometry). The following applies: strain MUCL20297, host Brassica, inoculum Sp, period of incubation in AFP-solution 48. How it is done: as §1, §2, §4, §3
For a further test, the system named is Gloeosporium musarum. Description: Antifungal activity assay (microspectrophotometry). The following applies: for IC50: inoculum Sp, period of incubation in AFP-solution 40. On the procedure:
as §1, §2, §4, §3

For the next test, the system named is Glomerella cingulata. Briefly: Antifungal activity assay (microspectrophotometry). The following applies: strain FAJ76, host Musa, inoculum Sp, period of incubation in AFP-solution 64. On the procedure:
as §1, §2, §4, §3

The test system of test [1] is Staphylococcus aureus ATCC 25923. Briefly: Antibacterial activity assay (microspectrophotometry). The note with it: tested at 200 μg/ml. How it is done: (§5) Antibacterial activity was measured microspectrophotometrically as follows. A bacterial suspension was prepared by inoculating soft nutrient agarose (tryptone, 10 g/l; Seaplaque agarose (FMC), 5 g/l). Aliquots (80 μl) of the bacterial suspension (10^5 colony forming units per ml) were added to filter-sterilized samples (20 μl) in flat-bottom 96-well microplates. The absorbance at 595 nm of the culture was measured with the aid of a microplate reader after 30 minutes and 24 hours of incubation at 28° C. Percent growth inhibition was calculated as described above for the antifungal activity assay.
(§6) The antibacterial activities of Ah-AMP1 and Hs-AFP1 were measured on four gram positive bacteria (Bacillus subtilis JHCC 553331; Micrococcus luteus ATCC 93411; Staphylococcus aureus ATCC 25923; Streptococcus feacolis ATCC 29212) and two gram negative bacteria (Eschericia coli HB101 and Proteus vulgaris JHCC 558711).

The test system of test [2] is Streptococcus feacolis ATCC 29212. Described as above. The note with it: tested at 200 μg/ml. How it is done: as §5, §6
Test [3] deals with Proteus vulgaris JHCC 558711. Described as above. The note with it: tested at 200 μg/ml. How it is done:
as §5, §6

The next test concerns Eschericia coli HB101. Described as above. The note with it: tested at 200 μg/ml. On the procedure: as §5, §6
Test [4] concerns Micrococcus luteus ATCC 93411. The description is as above. The following applies: tested at 200 μg/ml. How it is done: as §5, §6

Turning to “Ah-AMP1: Aesculus hippocastanum antimicrobial protein 1; 5 kDa polypeptide purified from seeds, 50 amino acids, SEQ ID NO 2 (LCNERPSQTWSGNCGNTAHCDKQCQDWEKASHGACHKRENHWKCFCYFNC)”, in the test on fungi, the hyperbranching of fungi result is “do not”. For the same substance, in the test with fungi, the “interference with fungal growth processes (hyphal length)” value was “reduction in hyphal length”. The IC50 (in general, the concentration that inhibits the measured activity by half) in the test with Alternaria brassicae (medium SMF+) is 3 µg/mL; in the test on Alternaria brassicae (medium SMF-) it was 1.5 µg/mL; with Curvularia affinis (medium SMF+), 25 µg/mL; with Curvularia affinis (medium SMF-), 0.75 µg/mL; in the test on Acremonium hyalinum (medium SMF+) it was 12.5 µg/mL; in the test with Acremonium hyalinum (medium SMF-), below 0.75 µg/mL. The IC50 is 12 µg/mL in the test on Alternaria brassicola (medium SMF+); 1.5 µg/mL in the test with Alternaria brassicola (medium SMF-); 12.5 µg/mL in the test with Gloeosporium musarum (strain FAJ86, host Muaa, medium SMF+); below 0.75 µg/mL with Gloeosporium musarum (strain FAJB6, host Musa, medium SMF-); 12.5 µg/mL in the test with Glomerella cingulata (medium SMF+); below 0.75 µg/mL in the test on Glomerella cingulata (medium SMF-). Also, the “reduction of activity in medium SMF- versus SMF+” value is recorded as “two-fold” with Alternaria brassicae (on Alternaria brassicae) and “more than ten-fold” with Gloeosporium musarum (on Gloeosporium musarum).

On to “Hs-AFP1: Heuchera sanquinea antifungal protein 1; 5 kDa polypeptide purified from seeds, 54 amino acids, SEQ ID NO 1 (DGVKLCDVPSGTWSGHCGSSSKCSQQCKDREHFAYGGACHYQFPSVKCFCKRQC)”, for which the hyperbranching of fungi result in the test on fungi is “cause hyperbranching”. Moreover, in the test on fungi, the “interference with fungal growth processes (hyphal length)” value was “reduction in hyphal length”. Moreover, the IC50 in the test on Alternaria brassicae (medium SMF+) turned out to be 3 µg/mL; in the test on Alternaria brassicae (medium SMF-) it was 1.5 µg/mL. For the same substance, the “inhibition of bacterial growth” value (in test [1]; in test [2]; in test [3]; in the test with Eschericia coli HB101; in test [4]) was “did not inhibit the growth” in each case.
